Patent US11220527B2, “Peptides derived from the propeptide NTSR3 and their use in the treatment of depression” (CENTRE NATIONAL DE LA RECHERCHE SCIENTIFIQUE, priority 2016, dated 2022)
“Also recorded” adds a separate entry of the source. Where a SMILES comes first, the peptide text is derived from it. The star is where a group is joined. Biotin = O=C1N[C@H]2[C@H](CS[C@H]2CCCCC(=O)*)N1

Experiments:
[1] = test system: BrdU-positive cells of the dentate gyrus of the hippocampus; test: Hippocampal neurogenesis by BrdU immunohistochemistry; assay type: in vivo; conditions: mice, four days of treatment, FIG. 5
Procedure: BrdU (5-bromo-2′-deoxyuridine) is a synthetic nucleoside analogous to thymidine. It is incorporated during DNA replication during phase S (chromosome duplication during interphase) of the cells in division. Injection of BrdU makes it possible to visualize the cells in division of the tissue to be analyzed by means of immunological labeling. In the present study, the hippocampal neurogenesis of the mice was evaluated after treatment with spadin or the different analogs.
After the behavioral tests, the mice were injected with BrdU at a final concentration of 120 mg/kg intraperitoneally, according to the modified protocol of Beauquis, J. et al. (Eur J Neurosci 23, 1539-1546, 2007). Four injections of 300 μl at 10 mg/ml, spaced two hours apart, were performed. 24 hours after the injections, the mice were anesthetized with pentobarbital (100 mg/kg) and then perfused intracardially. During the intracardiac perfusion, physiological saline was administered to remove all blood from the body of the mice, and then 4% paraformaldehyde (PFA) was perfused to fix the organs. Post-fixation in 4% PFA was also performed overnight. The brains of the mice were cut with a vibratome (Leica), which allowed 40 μm floating frontal sections to be obtained. The sections selected for the immunological reaction were those ranging from bregma 3.3 to 5.3. Eight sections were selected with a regular spacing, allowing the entire hippocampus to be covered while remaining homogeneous from one brain to another.
The immunological reaction was performed by incubating an anti-BrdU primary antibody (BD Pharmingen, 1/8000), with the brain sections, overnight at 4° C. The brain sections were then washed in PBS (Phosphate Buffered Saline) and incubated for two hours with the secondary antibody (biotinylated goat anti-mouse antibody, Vector laboratories, 1/400). […]
The sections were then mounted on slides and fixed with Entellan. BrdU-positive cells of the dentate gyrus of the hippocampus were counted in both hemispheres of each brain. […]

PSD-95 protein = test: Synaptogenesis: PSD-95 expression in cortical neurons by Western blot; assay type: cell-based, mouse C57BI/6J; conditions: 1 μM, 0-36 hours, normalized to ß-actin, FIG. 6
Procedure: Pregnant female C57BI/6J mice (20-25 g, Janvier Labs, St Berthevin, France) were anesthetized by inhalation of 2% isoflurane mixed with 30% oxygen and 70% nitrous oxide, and then sacrificed. The embryos (E14) were removed and the cerebral cortex was dissected in PBS containing 1% glucose. Neurons were prepared from cerebral cortex by mechanical dissociation, as described in Brewer and Torricelli, 2007 [26]. The dissociated neurons were distributed in poly-L-lysine treated plates and cultured for up to 10 days in neurobasal medium containing 2% B27 (Invitrogen, Fisher Scientific, Illkirch, France) and 50 μg/ml gentamycin (Sigma France), at 37° C. under 5% CO2. […]
Cortical neurons treated with peptides G/A-PE(22-28) and biotinylated G/A-PE(22-28) for different durations (0, 5, 8, 24 and 36 hours) were homogenized in Laemmli buffer and analyzed using 10% SDS-Page gels. […] The ß-actin contents were determined after extraction using a 1/5000 dilution of anti-β-actin antibodies (Santa Cruz mouse monoclonal antibody, dilution 1/5000). […] The proteins were detected with ECL Plus detection reagents (Amersham Biosciences) using the LAS-3000 imaging system (Fujifilm, Düsseldorf, Germany). The relative intensities of each labeled band were analyzed by densitometric scanning using ImageJ software (Wayne Rasband, National Institute of Health, Bethesda, Md., USA). […]

[2] = Learned helplessness test (LHT); assay type: in vivo; conditions: mice, bolus of 100 μL of a 10^-6 M solution 30 minutes before conditioning, FIG. 4
Procedure: Learned resignation or learned helplessness is a model based on the repeated administration of electric shocks to induce a resigned state in the animal.
The apparatus comprises two compartments separated by a sliding door and with a floor consisting of a metal grid through which the electrical pulses are administered. The learned helplessness protocol is divided into two stages, an animal conditioning stage and a test stage.
The conditioning was carried out over a period of four days during which time the mice received 360 non-avoidable electric shocks of 0.3 mA for one hour (the door, separating the two compartments, being closed). The shocks lasted for 2 seconds and an interval of 8 seconds was respected between each shock. This conditioning step leads to a phenomenon of helplessness in animals.
On the day of the test, the mice were placed in the same compartments but with a possibility of escaping the shock. The test counted 30 trials. During the administration of the shock, the door separating the two compartments opened, allowing the animals to flee. When the animal changes compartment the test is finished and the shock stops. […] This test made it possible to record the escape latencies of the animals. The thirty tests were then grouped by 5 and the average escape time was calculated. […]

LNCaP cells = test: Growth of LNCaP cells by counting the cells in culture; assay type: cell-based; conditions: cell count after 24 or 48 h, FIG. 7C
[3] = biological target: T1, TREK-1 channels expressed on the ßTC3 cells (Mus musculus, UniProt P97438); test: Whole-cell patch clamp, I=f(V), on ßTC3 cells activated with arachidonic acid; assay type: cell-based; conditions: previously activated with arachidonic acid, FIG. 7A
T1 construct: TREK-1 channels are present on the surface of beta-pancreatic cells such as beta-TC3 cells; endogenous in cells; host or cells: ßTC3 cells
T1 sequence (P97438 1-426): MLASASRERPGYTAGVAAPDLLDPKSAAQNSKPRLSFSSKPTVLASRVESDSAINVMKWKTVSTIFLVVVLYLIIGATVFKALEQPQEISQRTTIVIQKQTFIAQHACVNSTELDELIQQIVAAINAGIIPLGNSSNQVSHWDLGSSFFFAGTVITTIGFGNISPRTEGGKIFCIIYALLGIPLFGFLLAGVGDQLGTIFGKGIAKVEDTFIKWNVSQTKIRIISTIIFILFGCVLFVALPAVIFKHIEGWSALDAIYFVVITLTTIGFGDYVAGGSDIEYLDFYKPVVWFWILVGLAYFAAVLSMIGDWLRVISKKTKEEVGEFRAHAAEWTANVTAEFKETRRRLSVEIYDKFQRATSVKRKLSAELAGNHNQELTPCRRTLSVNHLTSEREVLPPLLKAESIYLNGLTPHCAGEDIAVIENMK
Procedure: (§1) All experiments measuring the effect of spadin analogs and spadin were performed on ßTC3 or LNCaP or HEK293 cells stably transfected with the TREK-1 channel, hTREK-1/HEK293. The hTREK-1/HEK293 cell line was prepared in the laboratory. These cells also express a reporter gene: E-Green Fluorescent Protein (EGFP) enabling their visualization.
The ßTC3 cells were cultured in RPMI 1640 medium supplemented with 2.5% FCS, 50 μM beta-mercaptoethanol, 10 mM HEPES, 1 mM sodium pyruvate, 50 μg/ml gentamycin and 1% of a streptomycin+penicillin mixture, at 37° C. in the presence of 5% CO2.
The LNCaP cells were cultured in DMEM medium (Gibco)/10% fetal calf serum (FCS, ICN)/1% streptomycin+penicillin mixture (Gibco)/1% glutamax (Gibco)/at 37° C. in the presence of 5% CO2. […] From day 2 to day 4, the cells were measured by electrophysiological methods.
(§2) All measurements were made at room temperature, i.e. at 21-22° C. The hTREK-1/HEK293 cells were identified by the fluorescence emitted by EGFP after excitation at 480 nm. […]
The cell culture medium was replaced with a solution 150 mM NaCl, 5 mM KCl, 3 mM MgCl2, 1 mM CaCl2, 10 mM HEPES/NaOH pH 7.4 containing 10 mM tetraethylammonium chloride, 3 mM 4-aminopyridine. […] The resting potential of the membrane of the measured cell was set at −80 mV. […]

[4] = biological target: T2, TREK-1 channels expressed on the LNCaP cells (Homo sapiens, UniProt O95069); test: Whole-cell patch clamp, I=f(V), on LNCaP cells activated with arachidonic acid; assay type: cell-based; conditions: previously activated with arachidonic acid, FIG. 7B
T2 construct: TREK-1 channels are also present on the surface of cancer cells such as LNCaP cells (prostate cancer); endogenous in cells; host or cells: LNCaP cells
T2 sequence (O95069 1-426): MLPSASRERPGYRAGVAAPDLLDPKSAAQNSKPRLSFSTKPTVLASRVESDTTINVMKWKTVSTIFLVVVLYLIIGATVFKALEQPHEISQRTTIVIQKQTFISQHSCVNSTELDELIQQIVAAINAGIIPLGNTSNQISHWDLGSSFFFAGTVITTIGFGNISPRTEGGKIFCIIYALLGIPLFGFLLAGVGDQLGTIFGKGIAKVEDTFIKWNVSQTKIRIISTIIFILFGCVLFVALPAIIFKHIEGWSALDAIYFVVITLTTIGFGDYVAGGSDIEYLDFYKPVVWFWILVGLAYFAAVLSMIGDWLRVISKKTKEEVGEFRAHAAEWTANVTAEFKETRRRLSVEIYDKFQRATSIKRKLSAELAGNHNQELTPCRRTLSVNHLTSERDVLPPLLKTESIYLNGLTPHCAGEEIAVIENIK
Procedure: as §1
The LNCaP cells were cultured in DMEM medium (Gibco)/10% fetal calf serum (FCS, ICN)/1% streptomycin+penicillin mixture (Gibco)/1% glutamax (Gibco)/at 37° C. in the presence of 5% CO2. At day 1, the hTREK-1/HEK293 or BTC3 or LNCaP cells were seeded at 20,000 cells per 35 mm diameter dish containing 2 ml of culture medium. From day 2 to day 4, the cells were measured by electrophysiological methods.
as §2
The cell culture medium was replaced with a solution 150 mM NaCl, 5 mM KCl, 3 mM MgCl2, 1 mM CaCl2, 10 mM HEPES/NaOH pH 7.4 containing 10 mM tetraethylammonium chloride, 3 mM 4-aminopyridine. […] The resting potential of the membrane of the measured cell was set at −80 mV.
The voltage variations were obtained either by continuous ramp (from −100 to +60 mV) or by a potential jump of 10 mV (from −100 to +60 mV, 1.5 seconds per jump). The data obtained were analyzed with the Pclamp software. […]

TREK-1 channel = biological target: T3, TREK-1 channel (Homo sapiens, UniProt O95069); conditions: previously shown; cited from earlier work
T3 sequence (O95069 1-426): T2 sequence (O95069 1-426)

## CC(C)C[C@H](NC(=O)CNC(=O)[C@H](Cc1c[nH]c2ccccc12)NC(=O)[C@H](CO)NC(=O)[C@@H](NC(=O)[C@H](C)NC(=O)CCCC[C@@H]1SC[C@@H]2NC(=O)N[C@@H]21)C(C)C)C(=O)N[C@@H](CCCNC(=N)N)C(=O)O [biotinylated G/A-PE(22-28)] (Biotin-AVSWGLR-OH; N-terminus and C-terminus assumed)
[1]
  neurogenesis (BrdU-positive cells of the hippocampus): increase neurogenesis more strongly than peptide PE(22-28); also recorded: capable of inducing an increase in neurogenesis
PSD-95 protein
  PSD-95 synaptic protein expression (synaptogenesis): increased PSD-95 synaptic protein expression
[2]
  escape latencies in the learned helplessness test: capable of reducing the escape latencies

## GVSWGLR (Peptide PE(22-28)) [base peptide derived from the propeptide, used for design of other peptides]
LNCaP cells
  growth of LNCaP cells: inhibits their growth; also recorded: capable of inhibiting the cell growth
[3]
  blocking of arachidonic acid (aa) activated TREK-1 / potassium currents on ßTC3 cells: blocks arachidonic acid (aa) sensitive potassium currents
[4]
  blocking of arachidonic acid (aa) activated TREK-1 / potassium currents on LNCaP cells: blocks arachidonic acid (aa) sensitive potassium currents; also recorded: capable of blocking the TREK-1 channels

## QDRLDAPPPPAAPLPRWSGPIGVSWGLRAAAAGGAFPRGGRWRR (Propeptide PE)
TREK-1 channel
  blocking of TREK-1 channel activity: able to block the activity of the TREK-1 channel
